Assay [1] deals with T1, FGFR2 (Homo sapiens, UniProt P21802).
T1 construct: purchased Carna 08-134
The assay is described as follows: FGFR2 Biochemical Caliper Assay (KinEASE-TK kit). As to conditions: 0.07 nM FGFR2; compound incubated with protein 10 min, reaction 45 min at RT; read-out: FGFR2 Cliper IC50.

Assay [2] has as its target T2, FGFR3 (Homo sapiens, UniProt P22607).
T2 construct: purchased Carna 08-135
The assay is described as follows: FGFR3 Biochemical Caliper Assay (KinEASE-TK kit). As to conditions: ratio FGFR3/FGFR2 of the biochemical assay. The gist of the method: (§1)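 KinEASE-TK HTRF readout: enzyme at 0.2 nM (FGFR1, FGFR3) preincubated 10 min at RT with 10-point 3-fold compound dilutions before TK-substrate/ATP start.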

The target in assay [3] is T3, FGFR1 (Homo sapiens, UniProt P11362).
T3 construct: purchased Carna 08-133
The assay is described as follows: FGFR1 Biochemical Caliper Assay (KinEASE-TK kit). The note with it: ratio FGFR1/FGFR2 of the biochemical assay. The essentials: as §1

Assay [4] deals with SNU16 cells. In words: SNU16 Cancer Cell Line Proliferation Assay (CellTiter-Glo). The assay is classed as cell-based. The essentials:
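Luminescent ATP read-out after 72 h at 37 °C gave IC50 values; compounds tested as 9 three-fold serial dilutions on 5000 SNU16 cells per well, with DMSO as control.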
For orientation: ATP-based viability assays read luminescence as a measure of living cells.

Where two headings read alike, the source gives them in different places.

T3 sequence (P11362 22-822): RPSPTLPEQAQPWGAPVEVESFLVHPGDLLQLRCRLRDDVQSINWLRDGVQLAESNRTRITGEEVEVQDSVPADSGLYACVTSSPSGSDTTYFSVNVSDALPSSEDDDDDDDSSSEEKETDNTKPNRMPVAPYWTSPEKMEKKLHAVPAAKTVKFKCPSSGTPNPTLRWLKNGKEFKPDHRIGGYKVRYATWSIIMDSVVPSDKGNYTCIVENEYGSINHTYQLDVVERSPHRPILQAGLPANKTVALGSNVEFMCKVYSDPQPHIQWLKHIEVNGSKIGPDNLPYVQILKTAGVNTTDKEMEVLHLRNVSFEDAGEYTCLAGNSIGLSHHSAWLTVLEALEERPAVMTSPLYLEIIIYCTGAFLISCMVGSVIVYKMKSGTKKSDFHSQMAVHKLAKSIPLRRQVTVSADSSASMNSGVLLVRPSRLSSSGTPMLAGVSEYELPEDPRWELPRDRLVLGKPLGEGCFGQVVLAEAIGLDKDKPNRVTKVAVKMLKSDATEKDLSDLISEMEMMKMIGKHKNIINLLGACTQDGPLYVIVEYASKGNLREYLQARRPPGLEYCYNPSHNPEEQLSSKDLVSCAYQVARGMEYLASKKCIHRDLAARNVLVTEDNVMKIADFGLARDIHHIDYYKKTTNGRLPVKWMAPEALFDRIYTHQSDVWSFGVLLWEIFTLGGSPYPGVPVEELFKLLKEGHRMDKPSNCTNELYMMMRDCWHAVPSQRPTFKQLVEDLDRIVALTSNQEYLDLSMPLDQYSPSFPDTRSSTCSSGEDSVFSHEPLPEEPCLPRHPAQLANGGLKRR
T2 sequence (P22607 23-806): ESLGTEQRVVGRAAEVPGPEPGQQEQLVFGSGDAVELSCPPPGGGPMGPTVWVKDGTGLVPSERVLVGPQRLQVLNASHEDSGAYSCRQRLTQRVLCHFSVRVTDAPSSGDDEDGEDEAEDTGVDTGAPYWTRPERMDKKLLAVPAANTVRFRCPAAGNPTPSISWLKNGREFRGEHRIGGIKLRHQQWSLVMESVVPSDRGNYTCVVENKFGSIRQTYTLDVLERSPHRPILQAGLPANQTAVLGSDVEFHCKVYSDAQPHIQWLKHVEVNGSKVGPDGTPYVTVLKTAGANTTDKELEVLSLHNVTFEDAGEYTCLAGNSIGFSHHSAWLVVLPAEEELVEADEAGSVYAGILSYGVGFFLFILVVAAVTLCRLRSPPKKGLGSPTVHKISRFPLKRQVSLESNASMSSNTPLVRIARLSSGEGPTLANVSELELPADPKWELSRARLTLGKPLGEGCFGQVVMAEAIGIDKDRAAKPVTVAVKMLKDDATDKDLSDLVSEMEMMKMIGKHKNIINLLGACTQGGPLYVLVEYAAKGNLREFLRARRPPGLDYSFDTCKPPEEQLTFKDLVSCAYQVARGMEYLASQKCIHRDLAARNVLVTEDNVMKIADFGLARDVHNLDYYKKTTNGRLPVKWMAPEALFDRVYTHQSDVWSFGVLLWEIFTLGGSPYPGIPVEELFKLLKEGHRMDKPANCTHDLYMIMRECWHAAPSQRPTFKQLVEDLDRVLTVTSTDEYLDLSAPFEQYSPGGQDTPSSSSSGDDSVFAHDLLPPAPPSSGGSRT
T1 sequence (P21802 22-821): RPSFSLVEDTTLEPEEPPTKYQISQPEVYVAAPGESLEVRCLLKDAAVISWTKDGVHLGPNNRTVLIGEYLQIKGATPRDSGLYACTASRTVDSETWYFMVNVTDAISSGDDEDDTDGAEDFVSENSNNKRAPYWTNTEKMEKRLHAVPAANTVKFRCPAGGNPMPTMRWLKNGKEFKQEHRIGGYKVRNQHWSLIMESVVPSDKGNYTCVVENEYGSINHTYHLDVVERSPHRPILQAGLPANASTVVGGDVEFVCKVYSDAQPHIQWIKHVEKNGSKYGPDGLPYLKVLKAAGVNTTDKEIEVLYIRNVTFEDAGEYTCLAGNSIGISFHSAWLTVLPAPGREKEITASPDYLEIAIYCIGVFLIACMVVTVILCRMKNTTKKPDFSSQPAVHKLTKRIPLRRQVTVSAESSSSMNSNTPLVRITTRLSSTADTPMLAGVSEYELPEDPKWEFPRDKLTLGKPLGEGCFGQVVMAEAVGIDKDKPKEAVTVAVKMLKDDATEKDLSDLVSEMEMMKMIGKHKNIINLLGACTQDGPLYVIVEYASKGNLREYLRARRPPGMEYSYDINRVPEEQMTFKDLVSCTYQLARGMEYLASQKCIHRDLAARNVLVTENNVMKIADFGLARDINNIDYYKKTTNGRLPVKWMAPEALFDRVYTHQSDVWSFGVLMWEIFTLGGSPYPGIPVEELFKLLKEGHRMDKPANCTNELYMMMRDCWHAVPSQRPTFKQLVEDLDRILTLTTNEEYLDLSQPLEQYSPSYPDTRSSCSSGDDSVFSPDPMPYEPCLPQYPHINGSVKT

As usually defined, the IC50 is the point on the concentration scale where inhibition reaches its midpoint. `C=C(F)C(=O)Nc1ccc(-c2c(-c3ccc(C(=O)NC4CC4)c(OC)c3)c3c(N)ncc(C#N)c3n2C)cc1` [Compound 104, 4-(4-amino-7-cyano-2-(4-(2-fluoroacrylamido)phenyl)-1-methyl-1H-pyrrolo[3,2-c]pyridin-3-yl)-N-cyclopropyl-2-methoxybenzamide]: the IC50 in assay [1] is 5 to 10 nM; in assay [4] (Homo sapiens, SNU-16, 72 h) it was at most 10 nM. Further, the “Selectivity FGFR3/FGFR2” value in assay [2] was “A+ (Selectivity of FGFR3/FGFR2 greater or equal to 150)”. The “Selectivity FGFR1/FGFR2” value in assay [3] is listed as “A+ (Selectivity of FGFR1/FGFR2 greater or equal to 500)”.
`C=CC(=O)Nc1ccc(-c2c(-c3ccc(C(=O)NC4CC4)c(OC)c3)c3c(N)ncc(C#N)c3n2CC(F)(F)F)cc1` [Compound 342]: the IC50 was below 5 nM in assay [1] and at most 10 nM in assay [4] (Homo sapiens, SNU-16, 72 h). In addition, the “Selectivity FGFR3/FGFR2” value in assay [2] is given as “A+ (Selectivity of FGFR3/FGFR2 greater or equal to 150)”. Moreover, the “Selectivity FGFR1/FGFR2” value in assay [3] was “B (Selectivity of FGFR1/FGFR2 less than 300 but greater than or equal to 200)”.
Consider `C=CC(=O)Nc1ccc(-c2c(-c3cc(F)c(Oc4ncc(F)c(C)n4)c(F)c3)c3c(N)ncc(C#N)c3n2C)cc1` [Compound 497], for which the IC50 in assay [1] is below 5 nM; in assay [4] (Homo sapiens, SNU-16, 72 h) it was at most 10 nM. For the same molecule, the “Selectivity FGFR3/FGFR2” value in assay [2] is “A+ (Selectivity of FGFR3/FGFR2 greater or equal to 150)”. Also, the “Selectivity FGFR1/FGFR2” value in assay [3] is “A+ (Selectivity of FGFR1/FGFR2 greater or equal to 500)”.
For `C=CC(=O)Nc1ccc(-c2c(-c3ccc(C(=O)NCC4CC4)c(OC)c3)c3c(N)ncc(C#N)c3n2C)cc1` [Compound 170], the IC50 in assay [1] is below 5 nM; in assay [4] (Homo sapiens, SNU-16, 72 h), at most 10 nM. Further, the “Selectivity FGFR3/FGFR2” value in assay [2] is given as “B (Selectivity of FGFR3/FGFR2 less than 100 but greater than or equal to 25)”. Moreover, in assay [3], the “Selectivity FGFR1/FGFR2” value is recorded as “A+ (Selectivity of FGFR1/FGFR2 greater or equal to 500)”.
Turning to `C=CC(=O)Nc1ccc(-c2c(-c3ccc(C(=O)NC4CCCC4)c(OC)c3)c3c(N)ncc(C#N)c3n2C)cc1` [Compound 109, 4-(2-(4-acrylamidophenyl)-4-amino-7-cyano-1-methyl-1H-pyrrolo[3,2-c]pyridin-3-yl)-N-cyclopentyl-2-methoxybenzamide], the IC50 in assay [1] is below 5 nM; in assay [4] (Homo sapiens, SNU-16, 72 h), at most 10 nM. Besides, the “Selectivity FGFR3/FGFR2” value in assay [2] was “B (Selectivity of FGFR3/FGFR2 less than 100 but greater than or equal to 25)”. Also, in assay [3], the “Selectivity FGFR1/FGFR2” value is “A+ (Selectivity of FGFR1/FGFR2 greater or equal to 500)”.
Turning to `C=CC(=O)Nc1ccc(-c2[nH]c3c(C#N)cnc(N)c3c2-c2ccc(C(=O)NCC(F)(F)F)c(OC)c2)cc1` [Compound 248], the IC50 in assay [1] was below 5 nM; in assay [4] (Homo sapiens, SNU-16, 72 h) it was at most 10 nM. The “Selectivity FGFR3/FGFR2” value in assay [2] is reported as “A+ (Selectivity of FGFR3/FGFR2 greater or equal to 150)”. Moreover, the “Selectivity FGFR1/FGFR2” value in assay [3] is given as “C (Selectivity of FGFR1/FGFR2 less than 200 but greater than or equal to 100)”.
With `C=CC(=O)Nc1ccc(-c2nn3ncnc(N)c3c2-c2ccc(C(=O)NCC(F)(F)F)c(OC)c2)c(OC)c1` [Compound 85, 4-(6-(4-acrylamido-2-methoxyphenyl)-4-aminopyrazolo[5,1-f] [1,2,4]triazin-5-yl)-2-methoxy-N-(2,2,2-trifluoroethyl)benzamide], the IC50 in assay [1] is below 5 nM; in assay [4] (Homo sapiens, SNU-16, 72 h), at most 10 nM. Besides, in assay [2], the “Selectivity FGFR3/FGFR2” value is “A+ (Selectivity of FGFR3/FGFR2 greater or equal to 150)”. In addition, the “Selectivity FGFR1/FGFR2” value in assay [3] is listed as “A+ (Selectivity of FGFR1/FGFR2 greater or equal to 500)”.
`C=CC(=O)Nc1ccc(-c2nn3ncnc(N)c3c2-c2ccc(C(=O)NCC)c(OC)c2)cc1` [Compound 60, 4-(6-(4-acrylamidophenyl)-4-aminopyrazolo[5,1-f] [1,2,4]triazin-5-yl)-N-ethyl-2-methoxybenzamide]: the IC50 in assay [1] is 5 to 10 nM; in assay [4] (Homo sapiens, SNU-16, 72 h), at most 10 nM. The “Selectivity FGFR3/FGFR2” value in assay [2] was “A (Selectivity of FGFR3/FGFR2 less than 150 but greater than or equal to 100)”. In assay [3], the “Selectivity FGFR1/FGFR2” value is given as “A+ (Selectivity of FGFR1/FGFR2 greater or equal to 500)”.
As to `C=C(F)C(=O)Nc1ccc(-c2nn3ncnc(N)c3c2-c2ccc(C(=O)NC3CC(F)C3)c(OC)c2)c(F)c1` (stereo not drawn) [Compound 249], the IC50 in assay [1] was below 5 nM; in assay [4] (Homo sapiens, SNU-16, 72 h) it was at most 10 nM. Also, the “Selectivity FGFR3/FGFR2” value in assay [2] is reported as “A+ (Selectivity of FGFR3/FGFR2 greater or equal to 150)”. Besides, the “Selectivity FGFR1/FGFR2” value in assay [3] is listed as “C (Selectivity of FGFR1/FGFR2 less than 200 but greater than or equal to 100)”.
Consider `C=C(F)C(=O)Nc1ccc(-c2c(-c3ccc(C(=O)NC4CCC4)cc3)c3c(N)ncc(C#N)c3n2C)cc1` [Compound 97, 4-(4-amino-7-cyano-2-(4-(2-fluoroacrylamido)phe-nyl)-1-methyl-1H-pyrrolo[3,2-c]pyridin-3-yl)-N-cyclobutylbenzamide], for which the IC50 was 5 to 10 nM in assay [1] and at most 10 nM in assay [4] (Homo sapiens, SNU-16, 72 h). The “Selectivity FGFR3/FGFR2” value in assay [2] was “A+ (Selectivity of FGFR3/FGFR2 greater or equal to 150)”. Also, in assay [3], the “Selectivity FGFR1/FGFR2” value is given as “A+ (Selectivity of FGFR1/FGFR2 greater or equal to 500)”.
As to `C#CC(=O)Nc1ccc(-c2nn3ncnc(N)c3c2-c2ccc(Oc3cccc(C)n3)c(F)c2)cc1` [Compound 410], the concentration for half-maximal inhibition (IC50) was below 5 nM in assay [1] and above 50 nM in assay [4] (Homo sapiens, SNU-16, 72 h). In addition, the “Selectivity FGFR3/FGFR2” value in assay [2] was “A (Selectivity of FGFR3/FGFR2 less than 150 but greater than or equal to 100)”. In addition, the “Selectivity FGFR1/FGFR2” value in assay [3] is listed as “A (Selectivity of FGFR1/FGFR2 less than 500 but greater than or equal to 300)”.
On to `C=C(F)C(=O)Nc1ccc(-c2nn3ncnc(N)c3c2-c2ccc(C(=O)NCC3(C(F)(F)F)CC3)c(OC)c2)c(F)c1` [Compound 358, 4-(4-amino-6-(2-fluoro-4-(2-fluoroacrylamido)phenyl)pyrazolo[5,1-f] [1,2,4]triazin-5-yl)-2-methoxy-N-((1-(trifluoromethyl)cyclo-propyl)methyl) benzamide], for which the IC50 in assay [1] is below 5 nM; in assay [4] (72 h, read-out: Cell SNU-16 IC50), at most 10 nM. In addition, the “Selectivity FGFR3/FGFR2” value in assay [2] is recorded as “A (Selectivity of FGFR3/FGFR2 less than 150 but greater than or equal to 100)”. Further, in assay [3], the “Selectivity FGFR1/FGFR2” value is “A+ (Selectivity of FGFR1/FGFR2 greater or equal to 500)”.
With `C=CC(=O)Nc1ccc(-c2c(-c3ccc(Oc4ncccn4)c(F)c3)c3c(N)ncc(C#N)c3n2C)cc1` [Compound 443, N-(4-(4-amino-7-cyano-3-(3-fluoro-4-(pyrimidin-2-yloxy)phenyl)-1-methyl-1H-pyrrolo[3,2-c]pyridin-2-yl)phenyl)acrylamide], the IC50 in assay [1] was below 5 nM; in assay [4] (Homo sapiens, SNU-16, 72 h) it was at most 10 nM. Also, in assay [2], the “Selectivity FGFR3/FGFR2” value is on record as “B (Selectivity of FGFR3/FGFR2 less than 100 but greater than or equal to 25)”. In assay [3], the “Selectivity FGFR1/FGFR2” value is listed as “C (Selectivity of FGFR1/FGFR2 less than 200 but greater than or equal to 100)”.
Consider `C=C(F)C(=O)Nc1ccc(-c2nn3ncnc(N)c3c2-c2ccc(C(=O)NCC3(F)CC3)c(OC)c2)cc1` [Compound 204, 4-(4-amino-6-(4-(2-fluoroacrylamido)phe-nyl)pyrazolo[5,1-f][1,2,4]triazin-5-yl)-N-((1-fluorocyclopropyl)methyl)-2-methoxybenzamide], for which the IC50 in assay [1] is below 5 nM; in assay [4] (Homo sapiens, SNU-16, 72 h), at most 10 nM. In assay [2], the “Selectivity FGFR3/FGFR2” value is on record as “A (Selectivity of FGFR3/FGFR2 less than 150 but greater than or equal to 100)”. The “Selectivity FGFR1/FGFR2” value in assay [3] is “A+ (Selectivity of FGFR1/FGFR2 greater or equal to 500)”.
Turning to `C=C(C)C(=O)Nc1ccc(-c2nn3ncnc(N)c3c2-c2ccc(Oc3nccc(C)n3)c(F)c2)c(C)c1` [Compound 450], the IC50 in assay [1] was above 10 nM; in assay [4] (Homo sapiens, SNU-16, 72 h), at most 10 nM. For the same molecule, in assay [2], the “Selectivity FGFR3/FGFR2” value is listed as “B (Selectivity of FGFR3/FGFR2 less than 100 but greater than or equal to 25)”. For the same molecule, the “Selectivity FGFR1/FGFR2” value in assay [3] is “A+ (Selectivity of FGFR1/FGFR2 greater or equal to 500)”.
`C=CC(=O)Nc1ccc(-c2nn3ncnc(N)c3c2-c2ccc(C(=O)NCC(F)F)c(OC)c2)cc1` [Compound 196, 4-(6-(4-acrylamidophenyl)-4-aminopyrazolo[5,1-f][1,2,4]triazin-5-yl)-N-(2,2-difluoroethyl)-2-methoxybenzamide]: the IC50 was below 5 nM in assay [1] and at most 10 nM in assay [4] (Homo sapiens, SNU-16, 72 h). Besides, in assay [2], the “Selectivity FGFR3/FGFR2” value is reported as “A+ (Selectivity of FGFR3/FGFR2 greater or equal to 150)”. In addition, the “Selectivity FGFR1/FGFR2” value in assay [3] is listed as “A (Selectivity of FGFR1/FGFR2 less than 500 but greater than or equal to 300)”.
Take `C=CC(=O)Nc1ccc(-c2c(-c3ccc(C(=O)NCC(F)(F)F)c(OC)c3)c3c(N)ncc(C#N)c3n2C)c(F)c1` [Compound 150, 4-(2-(4-acrylamido-2-fluorophenyl)-4-amino-7-cyano-1-methyl-1H-pyrrolo[3,2-c]pyridin-3-yl)-2-methoxy-N-(2,2,2-trifluoroethyl)benzamide]: the IC50 in assay [1] is below 5 nM; in assay [4] (Homo sapiens, SNU-16, 72 h) it was at most 10 nM. In addition, the “Selectivity FGFR3/FGFR2” value in assay [2] is “B (Selectivity of FGFR3/FGFR2 less than 100 but greater than or equal to 25)”. Further, in assay [3], the “Selectivity FGFR1/FGFR2” value was “A+ (Selectivity of FGFR1/FGFR2 greater or equal to 500)”.
On the same counts, the results for `C=CC(=O)Nc1ccc(-c2c(-c3ccc(C(=O)NC4CC4)c(OC)c3)c3c(N)ncc(C#N)c3n2CCF)cc1` [Compound 236, 4-(2-(4-acrylamidophenyl)-4-amino-7-cyano-1-(2-fluoroethyl)-1H-pyrrolo[3,2-c]pyridin-3-yl)-N-cyclopropyl-2-methoxybenzamide] are below 5 nM, at most 10 nM, “A (Selectivity of FGFR3/FGFR2 less than 150 but greater than or equal to 100)” and “A+ (Selectivity of FGFR1/FGFR2 greater or equal to 500)”.

(Values after patent US20240383905A1, “FGFR INHIBITORS AND METHODS OF USE THEREOF” (3H PHARMACEUTICALS CO., LTD., priority 2021, published 2024).)
